PubChem BioAssay (NCI)
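1) Cells in 96-well plates. 2) Compound, 48 h, 5 concentrations. 3) Linear interpolation between surrounding doses. 4) Unreached endpoint = highest concentration. At the TGI there is no net growth.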

What was measured:
Assay in all cases: inhibition of tumour cell growth, NCI panel, 48 h
BT-549 breast = tested on: BT-549 breast
EKVX NSCLC = tested on: EKVX NSCLC
HCT-116 colon = tested on: HCT-116 colon
M14 melanoma = tested on: M14 melanoma
OVCAR-4 ovarian = tested on: OVCAR-4 ovarian
RXF 393 renal = tested on: RXF 393 renal
SF-295 CNS = tested on: SF-295 CNS
T-47D breast = tested on: T-47D breast
RPMI-8226 leukemia = tested on: RPMI-8226 leukemia
HL-60(TB) leukemia = tested on: HL-60(TB) leukemia

SMILES	TGI (BT-549 breast)	TGI (EKVX NSCLC)	TGI (HCT-116 colon)	TGI (M14 melanoma)	TGI (OVCAR-4 ovarian)	TGI (RXF 393 renal)	TGI (SF-295 CNS)	TGI (T-47D breast)	TGI (RPMI-8226 leukemia)	TGI (HL-60(TB) leukemia)
O=C1C=Cc2c1csc2Br	> 100 µM	> 100 µM	> 100 µM	47.2 µM	> 100 µM	> 100 µM	> 100 µM	> 100 µM	–	–
COc1ccc2[nH]c3c(C)c4ccnc(NCCCN(C)CCCN)c4c(C)c3c2c1	3.61 µM	0.538 µM	–	0.335 µM	0.442 µM	–	0.66 µM	0.814 µM	> 100 µM	–
CCOC(=O)C(Cc1ccc2c(c1)CCC2)Cc1ccc2c(c1)CCC2	–	> 100 µM	> 100 µM	> 100 µM	> 100 µM	> 100 µM	> 100 µM	> 100 µM	> 100 µM	58.2 µM
COC(=O)CCN1CCN(CCO)CC1C (configuration not stated)	–	> 10 µM	> 10 µM	> 10 µM	> 10 µM	> 10 µM	> 10 µM	> 10 µM	> 10 µM	> 10 µM
COc1cc(CCC(=O)O)c2cc3ccccc3cc2c1O	30.9 µM	53.1 µM	31 µM	42.6 µM	29.7 µM	–	37.6 µM	36.3 µM	26.4 µM	39.1 µM
Cc1ccc(N(C)S(=O)(=O)c2ccccc2)cc1	> 100 µM	> 100 µM	> 100 µM	> 100 µM	> 100 µM	> 100 µM	> 100 µM	> 100 µM	> 100 µM	–
O=[N+]([O-])c1ccc(/C=N/n2c(CCc3n[nH]c(=S)n3/N=C/c3ccc([N+](=O)[O-])o3)n[nH]c2=S)o1	–	> 100 µM	29 µM	36.1 µM	36.7 µM	32.1 µM	> 100 µM	62.8 µM	> 100 µM	97.7 µM
Cc1ccc(S(=O)(=O)N/N=C2/C3C(CC2(C)C)C2(C)CCCC3(C)C2O)cc1 (configuration not stated)	31 µM	> 100 µM	33.9 µM	56.3 µM	43.3 µM	–	29.6 µM	54.5 µM	> 100 µM	> 100 µM
Cc1ccc(S(=O)(=O)Nn2c(C)cc3ccc(S(=O)(=O)Nc4ccccc4[N+](=O)[O-])cc3c2=O)cc1	> 100 µM	> 100 µM	> 100 µM	> 100 µM	> 100 µM	–	> 100 µM	–	> 100 µM	> 100 µM
Cc1ccc(S(=O)(=O)C(C#N)c2nc3ccccc3nc2N2CCOCC2)cc1 (configuration not stated)	–	> 100 µM	38.4 µM	> 100 µM	37.4 µM	–	–	–	87.6 µM	–
O=NN(CCCl)C(=O)Nc1ccc(Cl)c(Cl)c1	–	> 100 µM	> 100 µM	–	> 100 µM	> 100 µM	> 100 µM	–	> 100 µM	> 100 µM
Cc1cc(CN(Cc2ccccc2)Cc2nc3ccccc3[nH]2)c(O)c(CN(Cc2nc3ccccc3[nH]2)Cc2nc3ccccc3[nH]2)c1	18.3 µM	99.1 µM	23.1 µM	26.6 µM	98.7 µM	64.1 µM	> 61.6 µM	> 69.5 µM	38.4 µM	–
CC12OC3(C(O)C1O)C(C(=O)O[C@H]3CO[Si](C)(C)C(C)(C)C)C2S(=O)(=O)c1ccccc1 (some centres not stated)	–	> 100 µM	> 100 µM	> 100 µM	95 µM	–	> 100 µM	79.3 µM	70.8 µM	67.9 µM
c1csc(-c2sc(-c3ccsc3)cc2Cc2ccsc2)c1	–	> 10 µM	–	> 10 µM	> 10 µM	> 10 µM	> 10 µM	> 10 µM	> 10 µM	> 10 µM
CC(C)[Si](Oc1cc2c3c(ccc2c(O)c1[C@@H](C)CO[Si](C)(C)C(C)(C)C)C(C)(C)CCC3)(C(C)C)C(C)C	–	> 100 µM	> 100 µM	> 100 µM	> 100 µM	> 100 µM	> 100 µM	–	> 100 µM	43.4 µM
O=C(/C=C/c1cc(F)ccc1F)OCCc1ccccc1	> 100 µM	> 100 µM	> 100 µM	> 100 µM	47.4 µM	> 100 µM	–	–	> 100 µM	79.9 µM
COC(=N)c1ncn(Cc2ccccc2)c1N	–	> 100 µM	> 100 µM	> 100 µM	> 100 µM	> 100 µM	> 100 µM	> 100 µM	> 100 µM	–
C=CC(Br)(CBr)CCC(Br)C(C)(C)Br (configuration not stated)	–	–	28.3 µM	28.3 µM	32.3 µM	28.8 µM	16 µM	–	11.9 µM	–
CCOC(=O)c1ncn2c1[nH]c(=O)c1ccccc12	–	> 100 µM	> 100 µM	> 100 µM	> 100 µM	> 100 µM	> 100 µM	–	> 100 µM	–
COc1ccc(N2C(=O)C(C#N)=C(SC)C(C#N)C2=O)cc1 (configuration not stated)	> 100 µM	> 100 µM	> 100 µM	> 100 µM	> 100 µM	> 100 µM	> 100 µM	–	–	–
N#Cc1nc(-c2ccccc2O)oc1N	–	> 100 µM	> 100 µM	> 100 µM	–	> 100 µM	–	–	> 100 µM	> 100 µM
Cc1ccc([S+](c2ccccc2)c2cc(C)ccc2C)cc1 (configuration not stated)	–	> 100 µM	> 100 µM	> 100 µM	> 100 µM	–	69.1 µM	–	> 100 µM	66.5 µM
COc1ccc(C(=O)/C=C/c2ccc(OCC#N)cc2)cc1OC	30 µM	36 µM	17.2 µM	37.3 µM	> 100 µM	33.8 µM	–	28.8 µM	–	–
c1ccc(N=C2C(=Nc3ccccc3)N(C3CCCCC3)C(=NC3CCCCC3)N2c2ccccc2)cc1	> 100 µM	> 100 µM	> 100 µM	> 100 µM	–	> 100 µM	–	> 100 µM	> 100 µM	> 100 µM
CC(=O)N1N=C(c2ccc3ccccc3c2O)CC1c1ccc(Cl)cc1Cl (configuration not stated)	> 100 µM	–	> 100 µM	> 100 µM	> 100 µM	> 100 µM	> 100 µM	> 100 µM	> 100 µM	–
c1ccc2c(c1)ccc1nc3ccccn3c12	> 100 µM	> 100 µM	–	> 100 µM	–	> 100 µM	> 100 µM	> 100 µM	> 100 µM	> 100 µM
